Reference: patent US9308239B2, “Methods and compositions for treatment of retinoid-responsive conditions” (The Penn State Research Foundation, priority 2008, dated 2016)
Values joined by “and” are separate entries in the source; they are usually repeats but may differ in a detail not shown here. Identical values can stand only once.

Assays:
NGAL [1] = assay: Western blot of NGAL protein in SEB-1 sebocytes after retinoid treatment; format: cell-based, human; conditions: 72 hours, 0.1 nM to 1 μM, maximum with micromolar concentrations
From the text: For Western blotting, mouse monoclonal antibody to lipocalin 2 (NGAL) was obtained from Abeam, Inc., (Cambridge, Mass.). The 24p3R(NGAL receptor) affinity purified antibody, positive (HEK 293 cell lysate) and negative (T47D cell lysate) controls were kindly provided by Dr. Michael Green (University of Massachusetts Medical School). GAPDH (#2118), Cleaved caspase 3 (#9664), β-actin (#4967) and anti-rabbit horseradish peroxidase (HRP) linked secondary antibodies (#7074) were purchased from Cell Signaling Technology (Beverly, Mass.). Secondary Anti-mouse HRP antibody was purchased from Santa Cruz Biotechnology Inc. (Santa Cruz, Calif.).
SEB-1 sebocytes (passages 22-28) were in standard culture medium until 50-75% confluent. Treatments of 13-cis RA (0.1 nM, 1 nM, 10 nM, 0.1 μM, or 1 μM) or ethanol vehicle (0.01% or less) were applied for 48 or 72 hours. In parallel studies, identical concentrations of all-trans retinoic acid (ATRA) were applied for 72 hours. In all experiments, each plate was considered an independent sample and total protein was collected. Blots were incubated with appropriate primary and secondary antibodies followed by densitometry. […] Data was analyzed using a paired t-test and results were considered significant if p<0.05.
Protein expression was verified by western blot at 72 hours of retinoid treatment. […] Blots were analyzed by densitometry and normalized to β-actin. […]

sebaceous glands [2] = assay: TUNEL-peroxidase assay on patient skin biopsies; format: in vivo, human
LCN2 mRNA = assay: QPCR of LCN2 mRNA in SEB-1 sebocytes after retinoid treatment; format: cell-based, human; conditions: 48 hours
Procedure: Applied Biosystems' Assays-on-Demand Taqman Universal PCR Master Mix, primer/probe sets, and ABI's 7900HT Fast Real-Time PCR System with 384-well plate block module were used according to manufacturer's instructions (Applied Biosystems, Foster City, Calif.). Integrity of isolated RNA was verified by agarose gel electrophoresis. cDNA was generated from 1 μg of total RNA, primed with oligo-dT, using the Superscript First-Strand Synthesis System for RT-PCR (Invitrogen, Carlsbad, Calif.). Diluted cDNA from the one week samples were run for the reference gene TATA binding protein (TBP) and genes of interest: lipocalin 2, (LCN2) RARRES1, S100A7, SERPINA3 and PLA2G7. For gene array verification, 8 independent samples of SEB-1 sebocytes treated with 0.1 μM 13-cis RA or vehicle alone for 72 hours were analyzed. Genes of interest included: LCN2, RARRES1, insulin-like growth factor binding protein 3 (IGFBP-3), GATA3, ZBTB16 and potential LCN2 cell surface receptor (SLC22A17). Expression of TBP, GAPDH and LCN2 was analyzed in 6 independent SEB-1 samples for the siRNA knockdown experiments. SEB-1 sebocytes treated with increasing concentrations of ATRA (n=5) were analyzed for the reference gene, TBP, and LCN2. […] Data was analyzed using the Relative Expression Software Tool (REST-XL version 1) software program (64) with efficiency correction and a p-value <0.05 was considered significant. […]

NGAL [3] = assay: NGAL immunohistochemistry on patient skin sections; format: in vivo, human; conditions: individual patients 1-6 and average, after one week isotretinoin therapy
Procedure: All sections were counterstained with hematoxylin. […] NC-negative control, consists of a normal human skin incubated with normal mouse IgG1 antibody.

sebaceous glands [4] = assay: Histology: sebaceous gland area in patient skin biopsies (H&E, image analysis); format: in vivo, human; conditions: one week samples, mean±SEM; baseline 0.23±0.09; not significant (p=0.16)
NGAL [5] = assay: Immunoblot for NGAL in SEB-1 sebocytes after poly (I:C); format: cell-based, human; conditions: SEB-1, 20 μg/mL, 48 hrs
P. acnes bacteria = assay: P. acnes percent survival after rhNGAL treatment; conditions: 1-25 μg/mL, 4 hours, percent survival relative to vehicle
SEB-1 sebocytes = assay: TUNEL assay in SEB-1 sebocytes; format: cell-based, human; conditions: 24 hours, 1 ng/mL

CC1=C(/C=C/C(C)=C/C=C/C(C)=C/C(=O)O)C(C)(C)CCC1 [ATRA, all-trans retinoic acid]
NGAL protein expression increase compared to control (maximum) (NGAL [1]): 7 fold

CC1=C(/C=C/C(C)=C/C=C/C(C)=C\C(=O)O)C(C)(C)CCC1 [isotretinoin, 13-cis retinoic acid]
increase in the percentage of TUNEL positive cells vs baseline (sebaceous glands [2]; one week of therapy compared to baseline): 4 fold | percentage of TUNEL positive cells within the sebaceous gland (sebaceous glands [2]; one week of therapy, mean±SD, n=6 patients, baseline 13.9±6%, p=0.005): 45.9±11.9% | concentrations that significantly increased LCN2 mRNA levels (LCN2 mRNA): ≥ 1 nM | increase of LCN2 mRNA levels compared to control (LCN2 mRNA; micromolar concentrations): approximately 6 fold | 1-week (% of sebaceous gland positive for NGAL) (NGAL [3]): 27.1% and 1.1% and 12.1% and 1.0% and 36.7% and 11.3% | mean area of sebaceous glands (sebaceous glands [4]): 0.12±0.02 mm^2

Polyinosinic:polycytidylic acid [Poly (I:C)]
NGAL expression in total cell lysate (NGAL [5]): increases

B1: rhNGAL: purified recombinant human NGAL protein (amino acids 21-198, R&D Systems); in Example 14 rhNGAL produced in E. coli (protein)
chain: QDSTSDLIPAPPLSKVPLQQNFQDNQFQGKWYVVGLAGNAILREDKDPQKMYATIYELKEDKSYNVTSVLFRKKKCDYWIRTFVPGCQPGEFTLGNIKSYPGLTSYLVRVVSTNYNQHAMVFFKKVSQNREYFKITLYGRTKELTSELKENFIRFSKSLGLPENHIVFPVPIDQCIDG
modifications: human
effect on P. acnes bacteria (FIG. 11) (P. acnes bacteria): inhibitory effects | percentage of TUNEL positive cells (maximum) (SEB-1 sebocytes): approximately 35%
